Read-outs that look alike come from different tables or passages of the source.
What was measured:
[1] = target: phesphatidylinositol-3-kinase; assay: PI-3 kinase enzyme inhibition; type: biochemical; settings: read-out: P1-3 kinase Inhibition IC50
Excerpt: (§1) Highlighted are the compounds being made for antitumor testing.

NCl cell panel [2] = settings: nci cell panel, 48 h
C57BL6 mice = assay: Toxicity in mice, intraperitoneal daily for 4 days (MTD, differential blood counts, serum chemistry); type: in vivo; settings: for Maximum tolerated dose: Ip qD x 4, MTD=>10% body weight loss, C57BL6 mice; for Liver toxicity relative to wortmannie: mean percent increase in serum ALT and AST at the MTD or highest dose tested; for Liver toxicity relative to wortmannie / Lymphocyte toxicity relative to wortmannin: wortmannin as 1.0; for Lymphocyte toxicity relative to wortmannin: percent decrease in lymphocyte counts at the MTD or highest dose tested
Excerpt: as §1

mTOR = mTOR enzyme inhibition; type: biochemical; settings: dose to cause 50% inhibition
Excerpt: as §1

NCl cell panel [3] = assay: Cytotoxicity, MTT assay; settings: read-out: cytotoxieity NCl cell panel IC50
[4] = 2 day MTT assay, mean of 60 cell lines

## COC[C@H]1OC(=O)/C(=C/N2CCCC2)C2=C(O)C(=O)C3=C([C@H](OC(C)=O)C[C@]4(C)C(=O)CC[C@@H]34)[C@]21C [DJM2-167, Acetic acid 6-hydroxy-1α-methoxymethyl-10β,13β-dimethyl-3,7,17-trioxo-4-pyrrolidin-1-yl-methylene-1,3,4,7,10,11β,12,13,14α,15,16,17-dodecahydro-2-oxa-cyclopenta[a]phenanthren-11-yl]
[1]; dose to cause 50% inhibition
  IC50: 1100 nM
NCl cell panel [2]
  IC50: 500 nM

## COC[C@H]1OC(=O)/C(=C/SCc2ccccc2)C2=C(O)C(=O)C3=C([C@H](OC(C)=O)C[C@]4(C)C(=O)CC[C@@H]34)[C@]21C [DJM2-170]
C57BL6 mice
  Maximum tolerated dose: 9 mg/kg
  Liver toxicity relative to wortmannie: 1.7
  Lymphocyte toxicity relative to wortmannin: 1.1
[1]; dose to cause 50% inhibition
  IC50: 1000 nM
mTOR
  IC50: > 3000 nM
NCl cell panel [3]; [4]
  IC50: 7100 nM

## COC[C@H]1OC(=O)/C(=C/NC(C)C(=O)O)C2=C(O)C(=O)C3=C([C@H](OC(C)=O)C[C@]4(C)C(=O)CC[C@@H]34)[C@]21C (stereo partly drawn) [DJM2-177]
C57BL6 mice
  Maximum tolerated dose: 6 mg/kg
  Liver toxicity relative to wortmannie: 0.2
  Lymphocyte toxicity relative to wortmannin: 2.0
[1]; dose to cause 50% inhibition
  IC50: 300 nM
mTOR
  IC50: 1500 nM
NCl cell panel [3]; [4]
  IC50: 10200 nM

## COC[C@H]1OC(=O)C(=CN(C)Cc2ccccc2)C2=C(O)C(=O)C3=C([C@H](OC(C)=O)C[C@]4(C)C(=O)CC[C@@H]34)[C@]21C [DJM2-181, Acetic acid 4-[(benzylmethylamino)methylene]-6-hydroxy-1α-methoxymethyl-10β,13β-dimethyl-3,7,17-trioxo-1,3,4,7,10,11β,12,13, 14α,15,16,17-dodecahydro-2-oxa-cyclopenca[a]phenanthren-11-yl ester]
C57BL6 mice
  Maximum tolerated dose: > 18 mg/kg
[1]; dose to cause 50% inhibition
  IC50: 100 nM
mTOR
  IC50: > 3000 nM
NCl cell panel [2]
  IC50: 700 nM

## COC[C@H]1OC(=O)/C(=C/NCC(N)=O)C2=C(O)C(=O)C3=C([C@H](OC(C)=O)C[C@]4(C)C(=O)CC[C@@H]34)[C@]21C [DJM2-190]
C57BL6 mice
  Lymphocyte toxicity relative to wortmannin: 0.6
[1]; dose to cause 50% inhibition
  IC50: 10000 nM
mTOR
  IC50: > 3000 nM
NCl cell panel [3]; [4]
  IC50: 33000 nM

## COC[C@H]1OC(=O)c2coc3c2[C@@]1(C)C1=C(C3=O)[C@@H]2CCC(=O)[C@@]2(C)C[C@H]1OC(C)=O [wortmannin, reference compound]
[1]
  IC50: 300 nM
NCl cell panel [3]; Homo sapiens, 60 cell, 48 h
  IC50: 8900 nM
